Data: patent publication US20220184172A1, “AMPK/CASPASE-6 AXIS CONTROLS LIVER DAMAGE IN NONALCOHOLIC STEATOHEPATITIS” (The Regents of the University of California, priority 2019, published 2022)

What was measured:
[1] = test system: procaspase-6 cleavage in primary hepatocytes; test: Procaspase-6 cleavage induced by TNFα and CHX in primary hepatocytes (IB); format: cell-based, mice; conditions: 40 μM pretreatment 1 hr, then 30 μg/ml CHX and 50 ng/ml TNFα 2 hrs
Source text: FIGS. 5A-5K. AMPK phosphorylates caspase-6 to inhibit its cleavage and activation. FIG. 5A. […] IB analysis of cell lysates. n=3. Mean±SD. *, P<0.05, two-way ANOVA. FIG. 5B. […] Cell lysates were subject to caspase-6 activity assay. Mean±SD. *, P<0.05. FIG. 5C. Caspase-6 Ser^257 locates within AMPK substrate motif. FIG. 5C. discloses SEQ ID NOS 57-63, respectively, in order of appearance. FIG. 5D. In vitro kinase assay using recombinant caspase-6, and recombinant AMPKα1β1γ1 or AMPKα2β1γ1 active kinase. FIG. 5E. Alignment of caspase-6 sequence. FIG. 5E. discloses SEQ ID NOS 64-67, respectively, in order of appearance. FIG. 5F. HEK293T cells overexpressing caspase-6-myc WT, S^257A, S^257D or S^257E mutant were treated with 10 μg/ml CHX and 25 ng/ml TNFα for 2 hrs. IB analysis of cell lysates. FIGS. 5G-5J. C57BL/6J mice were fed CD-HFD for 6 weeks, followed by intraperitoneally injection of 25 mg/kg A-769662 or vehicle daily for 2 weeks while continuous CD-HI-D. Mice were sacrificed 6 hrs after last injection. FIG. 5G. IB analysis of liver lysates. n=5. FIG. 5H. Liver lysates were subject to caspase-6 activity assay. n=7. FIG. 5I. Liver sections stained as indicated therein (aCasp6 and DAPI); in the merged image sections, the different stains correspond to the grayscale shades as indicated in the single stained images to the left. Scale bar=50 μm. […] Quantification of aCasp6 staining per field in FIG. 5I. n=7. […]

[2] = test system: C57BL/6J mice fed 45% HFD; conditions: 30 mg/kg twice per day for 7 days; cited from earlier work

Q: For `N#Cc1c(O)c2c(-c3ccc(-c4ccccc4O)cc3)csc2[nH]c1=O` [A-769662], which procaspase-6 cleavage [1] is on record?
A: Its procaspase-6 cleavage is “significantly inhibited”.

Q: And the hepatic triglycerides [2]?
A: Its hepatic triglycerides is “reduced”.
